Reference: patent US10660884B2, “Phosphonate-chloroquine conjugates and methods using same” (University of Rochester, priority 2015, dated 2020)

Assays:
[1] = tested on: bone resorption; details: cited from earlier work; for Prevention of bone resorption in mice: literature report
[2] = tested on: WT mouse bone marrow (BM) cells (OC precursors); experiment: Osteoclastogenesis assay: OC formation on plastic, TRAP staining; type: cell-based; details: for Inhibition of osteoclast activity by osteoclast staining: WT mouse BM cells, images FIGS. 11-12
[3] = tested on: TRAF3; experiment: Western blot of RANKL-induced TRAF3 degradation; type: cell-based, mouse; details: 3 μM, 8 hrs, Western blotting
Protocol: WT mouse BM cells, cultured with M-CSF as in FIG. 6, were treated with vehicle, BTCQ, CQ or NC-BTCQ (3 μM) for 8 hrs. Cell lysates were used to test TRAF3 and actin protein levels by Western blotting.
Cultured cells were lysed with M-Per mammalian protein extraction reagent. 10-20 μg protein were loaded onto 10% SDS-PAGE gels, transferred onto polyvinylidene difluoride membranes, incubated with primary and secondary Abs, followed by exposure to ECL substrate. Signals were analyzed using a Bio-Rad imaging system.

[4] = literature; cited from earlier work

| SMILES | Dose that effectively blocks PTH-induced marrow fibrosis ([1]; Xiu Y et al., 2014) [mg/kg] | Prevention of bone resorption in mice [1] | OC formation (OC numbers after TRAP staining) ([2]; BM cells on plastic, M-CSF 2 days, then RANKL plus compound 3 more days) | Inhibition of osteoclast activity by osteoclast staining [2] | Concentration at which OC formation was inhibited (BTCQ more effective than CQ) ([2]; on plastic, FIG. 2A) [µM] | Prevention of RANKL-induced degradation of TRAF3 [3] | Blindness, share of patients [4] |
| --- | --- | --- | --- | --- | --- | --- | --- |
| CCN(CC)CCCC(C)Nc1ccnc2cc(Cl)ccc12.O=P(O)(O)O.O=P(O)(O)O (stereo not shown) [CQ, 7-chloro-4-[[4-(diethylamino)-1-methylbutyl]amino] quinoline phosphate (1:2)] | 50 | prevents bone resorption and osteoporosis | inhibited OC formation | more effective at inhibiting osteoclast activity than HCQ | 3 | unlike CQ and BTCQ, NC-BTCQ does not prevent RANKL-induced degradation of TRAF3 | – |
| CCN(CC)CCCC(C)N(C(=O)OCCCCCCCC(=O)NC(P(=O)(O)O)P(=O)(O)O)c1ccnc2cc(Cl)ccc12 (racemic) [UR-11, rac-(13-(7-chloroquinolin-4-yl)-18-ethyl-14-methyl-3,12-dioxo-11-oxa-2,13,18-triazaicosane-1,1-diyl)diphosphonic acid] | – | – | – | more effective at inhibiting osteoclast activity than the non cleavable amide UR-12 | – | – | – |
| CCN(CCO)CCCC(C)Nc1ccnc2cc(Cl)ccc12 (stereo not shown) [HCQ, hydroxychloroquine] | – | does not prevent bone resorption in mice | – | CQ and BTCQ are more effective at inhibiting osteoclast activity than HCQ | – | – | 0.5-1% |
